Data published in PubChem BioAssay AID1919010 (Molecular Pharmacology Branch, DTP, NCI, 2023).
Several values for one entry are separate records, joined by “and”; a condition that tells them apart may be missing. Identical values can stand only once.

Tested on: Hs578T complex spheroid growth, percent test/control
Assay: Anticancer human tumor Hs578T cell line growth inhibition [AhR];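 note: luminescent viability signal as a proxy for spheroid growth; spheroids exposed to agents for one week after three days of growth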
Settings: for viability, T/C: stronger effect = lower value
From the text: Multicellular complex tumor spheroid response to aryl hydrocarbon receptor antagonists in combination with a variety of drugs and investigational agents in selected tumor cell lines
The current study was undertaken to assess response to aryl hydrocarbon receptor antagonists in combination with standard-of-care drugs and investigational agents in solid tumor complex spheroid models. Complex spheroids include a stromal component modeled by human endothelial cells (HUVEC) and fibroblasts modeled by human mesenchymal stem cells (MSCs). The concentration ranges selected for each drug and investigational agent were based upon clinically achievable concentrations if the clinical Cmax of the agent was known.
Compounds. The drugs and investigational agents: BAY 2416964 (NSC825713), GNF351 (NSC835774), CH-223191 (NSC835775), CPI-455 (NSC825282), aza-TdCyd (NSC777586), decitabine (NSC127716), belinostat (NSC758774), entinostat (NSC756642), pevonedistat (NSC761192), tazemetostat (NSC777109), talazoparib (NSC765396), olaparib (NSC753686), selinexor (NSC780203), nedisertib (M3814, NSC802822), bortezomib (NSC756655), venetoclax (NSC766270), doxorubicin (NSC123127), elimusertib (BAY189344, NSC800525), ceralasertib (AZD6738, NSC777638), TAK-243 (NSC785004), alisertib (NSC759677), etoposide (NSC141540), topotecan (NSC609699), eribulin (NSC707389), gemcitabine (NSC613327), carboplatin (NSC241240), cisplatin (NSC119875), and SN-38 (NSC673596) were obtained from the National Cancer Institute (NCI) Developmental Therapeutics Program Chemical Repository (32). The FDA-approved anticancer drug set is available from the Developmental Therapeutics Program at https://dtp.cancer.gov/organization/dscb/obtaining/available plates.htm. […] The stock solutions were prepared in dimethyl sulfoxide (DMSO, Sigma-Aldrich, St. Louis, MO, cat. D2650), except for the platinum compounds which were prepared in saline (Quality Biological, Gaithersburg, MD, cat. 114-055-101), at 800-fold the tested concentration and stored at -70 degrees C prior to their use. All drugs and investigational agents were tested over a range starting from a high concentration at or near the clinical Cmax and decreasing in half-log increments. If the clinical Cmax for an agent had not been determined, the highest concentration tested was 10 microM (Table 1).
Cell Culture. All cells were maintained in an incubator at 37 degrees C and 5% CO2 with 95% humidity. The PDC lines were cultured according to standard operating procedures established by the NCI PDMR (https://pdmr.cancer.gov). Briefly, all PDCs were thawed and cultured in Matrigel-coated flasks prepared with a working solution of 1X Ham's F-12 nutrient mix, without supplementation (Invitrogen, Waltham, MA, cat. 11765054), 100 U/mL penicillin-streptomycin (Invitrogen, cat. 15140122), and 2.5% Matrigel (Corning Inc., Corning, NY, cat. 354248) for the first three passages. All PDCs were cultured in complete DMEM/F-12 media containing advanced DMEM/F-12 (Invitrogen, cat. 12634028), 4.9% defined fetal bovine serum, heat inactivated (HyClone Laboratories Inc., Logan, UT, cat. SH30070.03HI), 389 ng/mL hydrocortisone (Sigma-Aldrich, cat. H4001), 9.7 ng/mL human EGF recombinant protein (Invitrogen, cat. PHG0313), 23.4 microg/mL adenine (Sigma-Aldrich, cat. A2786), 97.3 U/mL penicillin-streptomycin (Invitrogen, cat. 15140122), 1.9 mM L-glutamine (Invitrogen, cat. 25030081), and 9.7 microM Y-27632 dihydrochloride (Tocris Bioscience, Bristol, United Kingdom, cat. 1254). The PDCs were cultured in complete DMEM/F12 media without 10 microM Y-27632 dihydrochloride for at least two passages prior to the screen. The established cell lines NCI-H1341 and […] were cultured in DMEM/F-12, HEPES (Invitrogen, cat. 11330032), 5% defined fetal bovine serum (HyClone Laboratories Inc., cat. SH30070.03), ITS premix universal culture supplement [insulin (5 microg/mL), transferrin (5 microg/mL), and selenious acid (5 ng/mL)] […]

Compound | IC50 (curve of compound) | viability, T/C (compound 0.0316 µM) | viability, T/C (compound 0.1 µM) | viability, T/C (compound 0.316 µM) | viability, T/C (compound 1 µM) | viability, T/C (compound 3.16 µM) | viability, T/C (compound 10 µM) | also measured
Cc1ccccc1N=Nc1ccc(NC(=O)c2ccnn2C)c(C)c1 | – | – | 101% [middle of 20 runs] | – | 102% [middle of 20 runs] | – | 64.6% [middle of 20 runs] | IC50 (compound alone, run of 08/22/2022): > 10000 nM
Cc1cncc(-c2nc(NCCc3c[nH]c4ccccc34)c3ncn(C(C)C)c3n2)c1 | – | – | 107% [middle of 20 runs] | 110% [middle of 20 runs] | – | – | 6.41% [middle of 20 runs] | IC50 (compound alone, run of 08/16/2022): 4.32 µM [middle of 24 runs]
Cn1ncnc1C1c2n[nH]c(=O)c3cc(F)cc(c23)NC1c1ccc(F)cc1 (configuration not stated) | > 100 nM | 97.6% and 104% and 106% | 102% and 96.8% and 95.4% | – | – | – | – | viability, T/C (compound 0.000316 µM): 92.2% and 98.6% and 103%; viability, T/C (compound 0.001 µM): 104% and 105% and 101%; viability, T/C (compound 0.00316 µM): 113% and 105% and 109%; viability, T/C (compound 0.01 µM): 106% and 105% and 103%
Nc1ccccc1NC(=O)c1ccc(CNC(=O)OCc2cccnc2)cc1 | 1640 nM and 1300 nM and 1190 nM | 110% and 93.1% and 105% | 94.4% and 93.7% and 104% | 90.6% and 82% and 81.3% | 65.3% and 61.6% and 56.3% | 29.8% and 16.3% and 22.4% | 1.27% and 0.71% and 1.79% | –
Nc1ccn(C2OC(CO)C(O)C2(F)F)c(=O)n1 (configuration not stated) | – | 47.9% and 47.2% and 52.3% | 58.5% and 48.9% and 52.8% | 58.5% and 51% and 51.5% | 52.4% and 51.2% and 50.9% | 50.7% and 50.1% and 51.2% | 56.5% and 43.3% and 49% | –
O=C(C=Cc1cccc(S(=O)(=O)Nc2ccccc2)c1)NO | 2910 nM and 1730 nM and 2230 nM | 95.1% and 99% and 103% | 109% and 96.7% and 106% | 91.4% and 95.8% and 88.1% | 73.5% and 71.2% and 72.4% | 49.8% and 26% and 40.5% | 1.74% and 0.77% and 1.35% | –
O=C(C=Cn1cnc(-c2cc(C(F)(F)F)cc(C(F)(F)F)c2)n1)NNc1cnccn1 | 346 nM and 176 nM and 244 nM | – | – | – | – | – | – | viability, T/C (compound 0.00949 µM): 91.2% and 92.5% and 96.9%; viability, T/C (compound 0.03 µM): 95.9% and 92.7% and 88.6%; viability, T/C (compound 0.0949 µM): 90.4% and 70.7% and 77.7%; viability, T/C (compound 0.3 µM): 54.4% and 32.3% and 45.1%; viability, T/C (compound 0.949 µM): 18.8% and 10% and 17.4%; viability, T/C (compound 3 µM): 15.7% and 10.8% and 15.9%
O=C(c1cc(Cc2n[nH]c(=O)c3ccccc23)ccc1F)N1CCN(C(=O)C2CC2)CC1 | > 10000 nM | 104% and 103% and 102% | 108% and 102% and 106% | 109% and 98.8% and 95% | 104% and 103% and 88.4% | 90.8% and 91.2% and 88.4% | 82.5% and 75.1% and 82.1% | –

Further lines, with some results ahead:

IC50 (curve of compound) | Compound | viability, T/C (compound 0.0316 µM) | viability, T/C (compound 0.1 µM) | viability, T/C (compound 0.316 µM) | viability, T/C (compound 1 µM) | viability, T/C (compound 3.16 µM) | viability, T/C (compound 10 µM) | also measured
448 nM and 364 nM and 406 nM | COc1cccc2c1C(=O)c1c(O)c3c(c(O)c1C2=O)CC(O)(C(=O)CO)CC3OC1CC(N)C(O)C(C)O1 (configuration not stated) | 94.7% and 85.6% and 84.9% | 76.8% and 79.4% and 75.8% | 64.8% and 54.3% and 58.2% | 22.9% and 18.6% and 23.3% | 3.73% and 2.18% and 2.52% | 3.36% and 2.24% and 3.77% | –
1850 nM and 1520 nM and 1090 nM | NS(=O)(=O)OCC1CC(n2ccc3c(NC4CCc5ccccc54)ncnc32)CC1O (configuration not stated) | 105% (2×) and 111% | 91.6% and 81.1% and 96.8% | 96.3% and 80.9% and 75.9% | 61.7% and 50.2% and 53.7% | 41% and 40.2% and 31.6% | 36.6% and 31.7% and 31.8% | –
> 1000 nM | Nc1ncn(C2CC(O)C(CO)O2)c(=O)n1 (configuration not stated) | 117% and 101% and 103% | 102% and 105% and 98.2% | 101% and 92.1% and 94.3% | 89.7% and 90.5% and 96.5% | – | – | viability, T/C (compound 0.00316 µM): 107% and 102% and 97.1%; viability, T/C (compound 0.01 µM): 104% (2×) and 97.5%
> 300 nM | Nc1ncn(C2CC(O)C(CO)S2)c(=O)n1 (configuration not stated) | – | – | – | – | – | – | viability, T/C (compound 0.000949 µM): 112% and 105% and 101%; viability, T/C (compound 0.003 µM): 100% and 106% and 101%; viability, T/C (compound 0.00949 µM): 116% and 96% and 105%; viability, T/C (compound 0.03 µM): 102% and 97.7% and 101%; viability, T/C (compound 0.0949 µM): 102% and 97.4% and 104%; viability, T/C (compound 0.3 µM): 98.1% and 90.8% and 94.5%
